Measured values published in US8877483B2, “Dioxin elimination promoter” (priority 2002, dated 2014).

Tested on: liver cytochrome P450
Assay: EPR spectra of rat liver after oral administration of PCB126 (construction of model animals)
Type: in vivo
Settings: rats, single forced oral dose 0, 0.3, 3, 30 or 100 μg/kg bw in corn oil, liver isolated 24 hour after administration; FIG. 1
Method: When the EPR measurement is carried out with rat liver as an experimental animal, the resonance absorption of an iron atom contained in cytochrome P450 protein is observed at a position of g=2.40. When dioxin were administered to a rat, an abnormal resonance absorption which is not observed in untreated case appears as a signal at a position of g=2.49, in addition to the normal resonance absorptions. Since the intensity of the abnormal signal becomes higher according to increase of an amount of dioxins administered, it can be a living body index showing a degree of pollution.
As laboratory animals, rats to which PCB 126 (3,3′,4,4′,5-pentachlorobiphenyl) had been administered were prepared. The rats were 6-week-old Sprangue-Dawley (purchased from Nippon Charles River). After acclimation rearing for about one week, they forcedly administered with solutions containing an adequate concentration of PCB 126 (manufactured by Wellington Laboratories; purity: 99.99% or more) dissolved in commercially available corn oil (manufactured by Hayashi Chemicals) so that the amount of cPCB was 0 (control), 0.3, 3, 30 or 100 μg/kg body weight (bw) in the same amount of corn oil through a probe. PCB-administered rats were euthanized with ether 24 hour after the administration. […] Then, tissue fragments were analyzed by an EPR measurement method. […]

Clc1ccc(-c2cc(Cl)c(Cl)c(Cl)c2)cc1Cl [cPCB, 3,3′,4,4′,5-pentachlorobiphenyl]
abnormal EPR signal at g=2.49 in liver tissue fragments: intensity varies depending on the administered amount
